From article PMC2813745, “A novel inhibitor of the PI3K/Akt pathway based on the structure of inositol 1,3,4,5,6-pentakisphosphate” (British Journal of Cancer, 2010)

Key:
JAK1 = JAK1 (Homo sapiens, UniProt P23458); experiment: SelectScreen kinase profiling: JAK1; type: biochemical; conditions: [ATP] 75 µM
Description: (§1) Effect of the indicated compounds on the activity of various kinases was assessed by SelectScreen Kinase Profiling Service (Invitrogen-Life Technologies, Paisley, UK). Assays were performed using 1 μM of the tested compounds and ATP concentration as indicated in the corresponding tables. In the case of […] a screen using 10 μM of the compound was also carried out, as indicated in the corresponding table.

Toxicity in mice = type: in vivo, nude CD-1 mice; conditions: for body weight of the treated animals / toxicity: 12.5, 25, 50 mg kg^−1 day^−1 i.p., 14 consecutive days; for toxic effect: single dose 750 mg kg^−1 i.p.
Description: Each group consisted of 2–3 mice. Body weight, deaths and any other sign of toxicity and changes in behaviour (such as motility, eating and drinking habits) were recorded.
Exponentially growing PC3 cells were harvested, washed twice and resuspended in PBS at a concentration of 2.5 × 10^7 cells ml^−1. A suspension of 5 × 10^6 PC3 cells was injected subcutaneously (s.c.) into the left flank of the recipient mice. When tumours reached a size of ∼70 mm^3 (approximately 15 days after tumour cell implant), mice were divided into seven groups (n=7). […] Control mice were treated with water in an equal volume. The diameters of s.c. growing tumours were measured with a caliper twice a week and the experiment was ended at day 28 after the implantation.
The inositol compounds (12.5–25–50 mg kg^−1 day^−1) and vehicle (water) were given daily by intraperitoneal (i.p.) injections for 14 consecutive days (days 15–28). Tumour size was assessed twice weekly. (A, B) Tumour growth in 2-O-Bn-InsP5-treated mice (A) and InsP5-treated mice (B) compared with control group measured for the duration of the experiment. Results are expressed as mean±s.e. (C) Top: Table showing all P-values for the indicated doses of 2-O-Bn-InsP5 compared to controls at the indicated days of treatment (NS=not significant). Bottom: In vivo anti-tumour activity parameters. The percentage of tumour weight inhibition (TWI%), the tumour growth delay (T−C) and the log cell kill (LCK) were calculated as described in the MATERIALS AND METHODS section. The highest inhibition of tumour volume is reported. […] Tumours were excised 24 h after treatment. Phosphorylation of Akt at its residues Ser473 and Thr308 was assessed by using specific antibodies. Membranes were then stripped and re-probed with an anti-Akt antibody.

[1] = molecular target: PIK3CD/PIK3R1(p110δ/p85α) (Homo sapiens, UniProt O00329); experiment: SelectScreen kinase profiling: PIK3CD/PIK3R1; type: biochemical; conditions: [ATP] 25 µM
Chain of PIK3CD/PIK3R1(p110δ/p85α) (O00329 whole entry): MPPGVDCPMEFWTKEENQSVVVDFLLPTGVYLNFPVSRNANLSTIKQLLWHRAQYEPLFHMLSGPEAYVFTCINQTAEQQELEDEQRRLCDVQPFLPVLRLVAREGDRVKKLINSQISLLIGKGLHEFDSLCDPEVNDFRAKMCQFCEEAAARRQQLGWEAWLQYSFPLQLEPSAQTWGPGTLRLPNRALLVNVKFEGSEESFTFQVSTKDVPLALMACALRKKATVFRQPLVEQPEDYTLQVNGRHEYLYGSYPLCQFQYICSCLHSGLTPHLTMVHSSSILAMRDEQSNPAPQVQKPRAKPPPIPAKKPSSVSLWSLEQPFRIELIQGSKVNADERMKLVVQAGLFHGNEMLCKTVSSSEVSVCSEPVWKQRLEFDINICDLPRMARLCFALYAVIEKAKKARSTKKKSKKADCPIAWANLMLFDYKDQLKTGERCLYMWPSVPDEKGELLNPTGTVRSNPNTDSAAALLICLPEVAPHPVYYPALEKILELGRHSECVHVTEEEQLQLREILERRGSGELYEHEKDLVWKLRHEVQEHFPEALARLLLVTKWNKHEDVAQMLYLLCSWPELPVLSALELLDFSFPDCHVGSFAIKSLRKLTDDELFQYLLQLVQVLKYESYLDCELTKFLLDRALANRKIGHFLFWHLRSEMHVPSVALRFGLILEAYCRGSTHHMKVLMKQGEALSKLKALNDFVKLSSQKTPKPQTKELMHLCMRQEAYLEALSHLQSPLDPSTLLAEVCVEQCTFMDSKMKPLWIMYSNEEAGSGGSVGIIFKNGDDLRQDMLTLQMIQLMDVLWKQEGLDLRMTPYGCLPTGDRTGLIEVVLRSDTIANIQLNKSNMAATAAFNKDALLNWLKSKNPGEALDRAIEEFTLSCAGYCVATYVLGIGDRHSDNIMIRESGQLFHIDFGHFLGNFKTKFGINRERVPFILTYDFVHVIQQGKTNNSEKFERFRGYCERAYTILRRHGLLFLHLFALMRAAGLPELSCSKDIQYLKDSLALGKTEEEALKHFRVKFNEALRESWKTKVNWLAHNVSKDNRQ
Chain of PIK3CD/PIK3R1(p110δ/p85α) (P27986 whole entry partner): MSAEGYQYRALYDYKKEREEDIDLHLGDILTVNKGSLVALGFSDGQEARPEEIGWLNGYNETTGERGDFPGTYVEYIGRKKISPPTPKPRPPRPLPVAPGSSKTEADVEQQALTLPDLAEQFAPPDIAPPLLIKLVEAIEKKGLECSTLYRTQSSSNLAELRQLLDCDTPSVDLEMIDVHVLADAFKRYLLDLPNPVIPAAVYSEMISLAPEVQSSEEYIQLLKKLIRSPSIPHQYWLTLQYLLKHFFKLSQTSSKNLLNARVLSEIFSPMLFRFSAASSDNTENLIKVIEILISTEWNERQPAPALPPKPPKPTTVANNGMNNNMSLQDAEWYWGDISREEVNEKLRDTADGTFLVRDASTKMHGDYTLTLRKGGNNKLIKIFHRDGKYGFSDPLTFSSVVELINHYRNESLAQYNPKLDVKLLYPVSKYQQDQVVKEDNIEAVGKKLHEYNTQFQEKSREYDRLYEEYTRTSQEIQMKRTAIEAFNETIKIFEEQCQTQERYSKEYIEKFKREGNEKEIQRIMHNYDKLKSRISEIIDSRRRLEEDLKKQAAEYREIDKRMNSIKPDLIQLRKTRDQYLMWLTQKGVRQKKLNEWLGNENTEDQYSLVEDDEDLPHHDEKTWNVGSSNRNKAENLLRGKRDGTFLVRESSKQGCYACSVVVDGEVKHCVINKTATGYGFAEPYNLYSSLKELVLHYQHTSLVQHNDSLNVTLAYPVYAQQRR
Description: as §1

CAMK1 (CaMK1) = CAMK1 (CaMK1) (Homo sapiens, UniProt Q14012); experiment: SelectScreen kinase profiling: CAMK1; type: biochemical; conditions: 10 µM compound; [ATP] 100 µM
Chain of CAMK1 (CaMK1) (Q14012 whole entry): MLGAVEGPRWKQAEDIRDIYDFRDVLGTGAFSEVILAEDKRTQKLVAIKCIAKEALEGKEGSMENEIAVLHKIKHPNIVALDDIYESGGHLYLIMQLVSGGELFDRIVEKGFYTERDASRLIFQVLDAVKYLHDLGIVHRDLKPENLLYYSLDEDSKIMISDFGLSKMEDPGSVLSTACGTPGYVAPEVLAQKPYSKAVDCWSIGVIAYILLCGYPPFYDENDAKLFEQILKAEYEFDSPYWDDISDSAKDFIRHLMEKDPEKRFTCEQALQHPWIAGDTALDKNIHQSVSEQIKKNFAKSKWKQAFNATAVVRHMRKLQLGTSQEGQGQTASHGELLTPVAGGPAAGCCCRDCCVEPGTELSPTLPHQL
Description: as §1

ASPC1 = experiment: Cell survival by cell counting, ASPC1; type: cell-based, human; conditions: ASPC1, 72 h
Description: (§2) Cells seeded in a 24-well plate were treated with the indicated compounds in serum free DMEM or DMEM containing 0.5% FBS (PC3). After 72 h, the number of surviving cells was assessed by manual cell counting or by using the cell counter CDA-500 (Sysmex, Milton Keynes, UK). Alternatively, after 48 h, the number of apoptotic cells was assessed by acridine orange/ethidium bromide assay as described ([Piccolo et al, 2004]; [Maffucci et al, 2005]). SRB test was carried out in SKOV-3 and PC3 seeded in 96-well plate (3800 cells per well or 5800 cells per well, respectively) after 72 h of treatment as described ([Cappella et al, 2001]).
(§3) The number of surviving cells was assessed by cell counting. Data are mean±s.e. of n=3 (A), n=6 (B), n=3 (C) and n=4 (D) independent experiments carried out in duplicate. ^*=P<0.01; ^**=P<0.05. […] After 72 h the number of surviving cells was assessed by SRB assay. Data are mean±s.e. of n=2 independent experiments.
(§4) Data are mean±s.e. of n=4 independent experiments carried out in duplicate. […] Data are mean±s.e. of n=5 independent experiments carried out in duplicate. […] In all cases (A–D), cells were treated for 72 h and the number of surviving cells was assessed by cell counting. […] In all cases (E, F), cells were treated for 72 h and the number of surviving cells was assessed by SRB assay and data are mean±s.e. of two experiments carried out in quadruplicate.

BxPc-3 = experiment: Cell survival by cell counting, BxPc-3; type: cell-based, human; conditions: BxPc-3, 72 h
Description: as §2, §3

SKBR3 = experiment: Cell survival by cell counting, SKBR3; type: cell-based, human; conditions: SKBR3, 72 h
Description: as §2
The number of surviving cells was assessed by cell counting. Data are mean±s.e. of n=4 (A) and n=2 (B) independent experiments. ^**=P<0.05. […] The number of apoptotic cells was assessed by acridine orange/ethidium bromide assay. Data are mean±s.e. of three independent experiments. ^**=P<0.05.

[2] = system: almost 60 protein kinases; experiment: SelectScreen kinase profiling: all the other tested kinases of the panel; type: biochemical; conditions: 1 μM; all tested kinases other than PDK1 and mTOR
Description: Effect of the indicated compounds on the activity of various kinases was assessed by SelectScreen Kinase Profiling Service (Invitrogen-Life Technologies, Paisley, UK). Assays were performed using 1 μM of the tested compounds and ATP concentration as indicated in the corresponding tables. In the case of InsP5 a screen using 10 μM of the compound was also carried out, as indicated in the corresponding table.
None of the other polyphosphates had any significant effect (Table 1C). […] This is consistent with the detected inhibition of Thr308 phosphorylation in 2-O-Bn-InsP5-treated SKOV-3 and PC3 cells (Figure 1B and C) and 2-O-Bn-InsP5-treated mice (Figure 4D).

[3] = system: Akt phosphorylation at Ser473 and Thr308 in PC3 tumours; experiment: Akt phosphorylation in excised tumours (western blot); type: in vivo, nude athymic CD-1 nu/nu mice; conditions: single dose 50 mg kg^−1, tumours excised 24 h after treatment
Description: Animals were killed 24 h after treatment and tumour samples were collected and snap frozen. Frozen specimens of tumour tissue were homogenised with a Polytron homogeniser in a lysis buffer (ratio 1 : 1 w/v) containing 50 mM Tris-HCl (pH 7.4), 5 mM EDTA, 0.1% Nonidet NP-40, 250 mM NaCl, 50 mM NaF and proteases and phosphatase inhibitors. After centrifugation at 13 000 r.p.m. for 10 min at 4°C, 80 μg of protein was separated on SDS–PAGE and transferred to a polyvinylidene difluoride membrane (Millipore, MA, USA). Membranes were probed with the indicated antibodies.
The inositol compounds (12.5–25–50 mg kg^−1 day^−1) and vehicle (water) were given daily by intraperitoneal (i.p.) injections for 14 consecutive days (days 15–28). Tumour size was assessed twice weekly. (A, B) Tumour growth in 2-O-Bn-InsP5-treated mice (A) and InsP5-treated mice (B) compared with control group measured for the duration of the experiment. Results are expressed as mean±s.e. (C) Top: Table showing all P-values for the indicated doses of 2-O-Bn-InsP5 compared to controls at the indicated days of treatment (NS=not significant). […] The percentage of tumour weight inhibition (TWI%), the tumour growth delay (T−C) and the log cell kill (LCK) were calculated as described in the MATERIALS AND METHODS section. […] Phosphorylation of Akt at its residues Ser473 and Thr308 was assessed by using specific antibodies. […]

MDA-MB-468 = experiment: Cell survival by cell counting, MDA-MB-468; type: cell-based, human; conditions: MDA-MB-468, 72 h
Description: as §2, §3, §4

Chain of JAK1 (P23458 whole entry): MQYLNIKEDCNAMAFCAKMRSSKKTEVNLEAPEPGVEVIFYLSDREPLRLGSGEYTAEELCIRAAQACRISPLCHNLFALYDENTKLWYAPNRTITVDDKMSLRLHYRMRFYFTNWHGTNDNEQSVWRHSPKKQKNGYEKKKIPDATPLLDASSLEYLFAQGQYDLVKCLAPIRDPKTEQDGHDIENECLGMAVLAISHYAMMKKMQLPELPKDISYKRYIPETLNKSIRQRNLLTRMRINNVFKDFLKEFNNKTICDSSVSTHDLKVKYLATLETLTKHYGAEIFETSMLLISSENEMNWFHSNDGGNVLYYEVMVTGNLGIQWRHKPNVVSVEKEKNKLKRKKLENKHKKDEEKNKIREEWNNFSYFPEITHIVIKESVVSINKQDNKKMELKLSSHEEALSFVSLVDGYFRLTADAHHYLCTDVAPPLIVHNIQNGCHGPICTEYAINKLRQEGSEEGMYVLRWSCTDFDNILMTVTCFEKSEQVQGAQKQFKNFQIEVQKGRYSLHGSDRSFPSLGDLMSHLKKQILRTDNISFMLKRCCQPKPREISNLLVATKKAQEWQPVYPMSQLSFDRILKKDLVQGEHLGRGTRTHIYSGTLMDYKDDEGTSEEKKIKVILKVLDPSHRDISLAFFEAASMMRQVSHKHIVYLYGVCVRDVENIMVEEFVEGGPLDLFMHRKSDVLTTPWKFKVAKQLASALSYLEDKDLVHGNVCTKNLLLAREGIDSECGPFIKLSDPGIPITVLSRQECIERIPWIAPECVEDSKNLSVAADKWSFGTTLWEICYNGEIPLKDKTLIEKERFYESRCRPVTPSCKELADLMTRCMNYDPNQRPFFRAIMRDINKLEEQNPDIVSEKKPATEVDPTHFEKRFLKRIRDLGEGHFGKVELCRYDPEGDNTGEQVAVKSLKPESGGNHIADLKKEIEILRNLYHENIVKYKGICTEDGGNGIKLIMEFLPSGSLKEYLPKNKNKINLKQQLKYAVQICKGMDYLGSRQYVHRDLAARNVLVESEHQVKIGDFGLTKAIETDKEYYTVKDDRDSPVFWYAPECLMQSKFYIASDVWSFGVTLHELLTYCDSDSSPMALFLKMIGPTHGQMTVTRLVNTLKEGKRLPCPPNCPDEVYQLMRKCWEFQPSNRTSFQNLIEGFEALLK

Compound	inhibition at 10 µM (JAK1; 10 µM compound) [%]	body weight of the treated animals (Toxicity in mice)	toxicity (Toxicity in mice)	toxic effect (Toxicity in mice)	inhibition at 10 µM ([1]; 10 µM compound) [%]	inhibition at 10 µM (CAMK1 (CaMK1)) [%]	number of surviving cells (ASPC1)	inhibition at 1 µM (JAK1; 1 µM compound) [%]	number of surviving cells (BxPc-3)	tolerability in vivo (Toxicity in mice; relative to the active dose)	inhibition at 1 µM ([1]; 1 µM compound) [%]	number of surviving cells (SKBR3)	percentage of inhibition of all the other tested kinases [2] [%]	Akt phosphorylation at residue Ser473 in tumours [3]	Akt phosphorylation at residue Thr308 in tumours [3]	number of surviving cells (MDA-MB-468)
O=P(O)(O)OC1C(O)C(OP(=O)(O)O)C(OP(=O)(O)O)C(OP(=O)(O)O)C1OP(=O)(O)O (stereo not shown) [InsP5, inositol 1,3,4,5,6-pentakisphosphate]	-2	not different from the untreated mice	no evidence of toxicity	did not cause any major toxic effect	-2	-46										
O=P(O)(O)OC1C(OCc2ccccc2)C(OP(=O)(O)O)C(OP(=O)(O)O)C(OP(=O)(O)O)C1OP(=O)(O)O (stereo not shown) [2-O-Bn-InsP5, 2-O-benzyl-myo-inositol 1,3,4,5,6-pentakisphosphate]		not different from the untreated mice	no evidence of toxicity	did not cause any major toxic effect			more active than InsP5 at almost all concentrations tested	-1	more potent than InsP5 at a concentration of 50 μM	well tolerated in vivo even at concentrations 15 times higher the active dose	6	strongly reduced the number of surviving	< 40	markedly reduced Akt phosphorylation at its residue Ser473 in all 2-O-Bn-InsP5-treated mice	clear inhibition of Akt phosphorylation at its residue Thr308 was detected in five out of seven	stronger activity of 2-O-Bn-InsP5 compared with InsP5
